Assay [1] deals with T1, Amine oxidase [flavin-containing] A (Homo sapiens, UniProt P21397).
T1 sequence (P21397 whole entry): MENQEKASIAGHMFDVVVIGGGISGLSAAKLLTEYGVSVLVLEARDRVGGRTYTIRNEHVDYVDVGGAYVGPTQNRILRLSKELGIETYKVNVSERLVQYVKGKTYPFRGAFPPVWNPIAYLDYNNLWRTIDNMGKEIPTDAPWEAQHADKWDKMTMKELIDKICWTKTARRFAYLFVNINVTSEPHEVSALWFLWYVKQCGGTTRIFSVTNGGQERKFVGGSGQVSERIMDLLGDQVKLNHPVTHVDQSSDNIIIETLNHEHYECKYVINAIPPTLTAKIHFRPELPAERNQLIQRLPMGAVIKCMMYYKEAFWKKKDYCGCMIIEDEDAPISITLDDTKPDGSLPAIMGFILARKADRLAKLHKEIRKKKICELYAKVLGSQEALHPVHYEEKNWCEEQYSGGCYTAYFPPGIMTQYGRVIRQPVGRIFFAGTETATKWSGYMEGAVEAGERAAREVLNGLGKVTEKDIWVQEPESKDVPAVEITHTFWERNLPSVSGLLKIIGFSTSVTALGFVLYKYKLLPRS
Kind of assay: biochemical. It is filed as cell-based.
Description: Inhibition of human MAOA expressed in baculovirus-infected BTI insect cells assessed as H2O2 production by resorufin dye based fluorimetric method

The target in assay [2] is T2, Amine oxidase [flavin-containing] B (Homo sapiens, UniProt P27338).
T2 sequence (P27338 whole entry): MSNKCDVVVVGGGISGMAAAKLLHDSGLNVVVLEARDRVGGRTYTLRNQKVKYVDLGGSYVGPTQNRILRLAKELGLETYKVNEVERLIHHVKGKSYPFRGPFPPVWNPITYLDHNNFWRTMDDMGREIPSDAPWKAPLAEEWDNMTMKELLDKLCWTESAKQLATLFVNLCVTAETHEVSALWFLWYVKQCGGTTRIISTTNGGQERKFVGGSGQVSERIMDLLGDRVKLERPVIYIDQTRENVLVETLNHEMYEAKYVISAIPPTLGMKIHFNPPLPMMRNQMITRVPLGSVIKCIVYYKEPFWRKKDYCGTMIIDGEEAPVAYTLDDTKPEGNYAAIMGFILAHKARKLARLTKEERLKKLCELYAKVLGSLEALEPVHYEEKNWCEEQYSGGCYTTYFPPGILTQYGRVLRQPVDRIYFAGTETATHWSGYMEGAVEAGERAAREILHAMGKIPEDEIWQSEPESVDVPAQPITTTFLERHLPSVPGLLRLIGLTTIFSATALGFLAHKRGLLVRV
Nature of the assay: biochemical. It counts as cell-based.
Description: Inhibition of human MAOB expressed in baculovirus-infected BTI insect cells assessed as H2O2 production by resorufin dye based fluorimetric method

In general, Ki refers to a measure of affinity in units of concentration, obtained from inhibition or displacement. For `COc1ccc(/C=C/C(=N\NC(=O)c2ccc(OC)cc2)c2ccc(Br)cc2)cc1`, the inhibitory constant (Ki) in assay [1] is 0.045 µM; in assay [2], 0.98 µM.

In turn, `COc1ccc(C(=O)N2N=C(c3cc(Br)ccc3O)C[C@@H]2c2ccc(C)cc2)cc1` had a Ki in assay [1] of 79.2 µM. For `COc1ccc(/C=C/C(=O)c2ccc(Br)cc2)cc1`, the Ki was determined as 0.1 µM in assay [1] and 5.55 µM in assay [2]. In assay [1], `COc1ccc(/C=C/C(=N\NC(=O)c2ccc(OC)cc2)c2ccc(Cl)cc2)cc1` showed an inhibitory constant (Ki) of 0.034 µM.

For `Cc1ccc(/C=C/C(=O)c2cc(Br)ccc2O)cc1`, the Ki in assay [1] worked out at 0.13 µM; in assay [2], 4.22 µM.

On to `Cc1ccc(/C=C/C(=O)c2ccc(Cl)cc2)cc1`, for which the Ki in assay [1] was determined as 0.24 µM; in assay [2] it was 7.7 µM.

In the case of `COc1ccc(/C=C/C(=N/NC(=O)c2snnc2C)c2ccc(Cl)cc2)cc1`, the results for the Ki in assay [1] and in assay [2] were 0.012 µM and 1.05 µM, respectively.

As to `Cc1ccc([C@H]2CC(c3cc(Cl)ccc3O)=NN2C(=O)c2ccccc2)cc1`, the Ki came to 0.012 µM in assay [1] and 0.75 µM in assay [2].

On to `COc1ccc(C(/C=C/c2ccc(C)cc2)=N\NC(=O)c2snnc2C)cc1`, for which the values for the Ki in assay [1] and in assay [2] were 0.041 µM and 0.9 µM, respectively. Taken in the same sequence, the figures for `Cc1cccc(/C=C/C(=O)c2ccc(Cl)cc2)c1` were 0.16 µM and 7 µM. For `COc1ccc(/C=C/C(=O)c2ccc(Cl)cc2)cc1`, in that order: 0.24 µM and 13.9 µM. On to `Cc1ccc(/C=C/C(=O)c2cc(Cl)ccc2O)cc1`, for which the inhibition constant Ki in assay [1] amounted to 0.14 µM; in assay [2] it was 7.22 µM. For `Cc1ccc([C@H]2CC(c3cc(Br)ccc3O)=NN2C(=O)c2cccs2)cc1`, in that order: 0.13 µM and 1640 µM. Compound `Cc1ccc([C@H]2CC(c3cc(Br)ccc3O)=NN2C(=O)c2ccccc2)cc1` came in with a Ki in assay [1] of 0.04 µM. For `Cc1ccc([C@H]2CC(c3cc(Cl)ccc3O)=NN2C(=O)c2ccco2)cc1`, the results for the Ki in assay [1] and in assay [2] were 0.11 µM and 0.99 µM, respectively. For `Cc1ccc(/C=C/C(=N/NC(=O)c2snnc2C)c2ccc(Cl)cc2)cc1`, in that order: 0.012 µM and 0.76 µM. For `Cc1ccc([C@H]2CC(c3cc(Cl)ccc3O)=NN2C(=O)c2snnc2C)cc1`, in that order: 0.24 µM and 72 µM. Taken in the same sequence, the figures for `Cc1cccc(/C=C/C(=N/NC(=O)c2snnc2C)c2ccc(Cl)cc2)c1` were 0.01 µM and 0.99 µM.

Consider `COc1ccc(C(=O)/C=C/c2ccc(C)cc2)cc1`, for which the Ki in assay [1] was found to be 0.56 µM; in assay [2], 14.9 µM. Taken in the same sequence, the figures for `Cc1ccc([C@H]2CC(c3cc(Cl)ccc3O)=NN2C(=O)c2ccncc2)cc1` were 0.6 µM and 5.23 µM.

Consider `COc1ccc(/C=C/C(=N\NC(=O)c2ccco2)c2ccc(Br)cc2)cc1`, for which the Ki came out at 0.091 µM in assay [1] and 0.7 µM in assay [2]. For `Cc1ccc(/C=C/C(=N\NC(=O)c2cccs2)c2ccc(Cl)cc2)cc1`, in that order: 0.034 µM and 0.52 µM.

For `Cc1ccc([C@H]2CC(c3cc(Br)ccc3O)=NN2C(=O)c2ccncc2)cc1`, the Ki worked out at 0.18 µM in assay [1] and 2 µM in assay [2]. Taken in the same sequence, the figures for `Cc1ccc(/C=C/C(=N/NC(=O)c2snnc2C)c2ccc(O)cc2)cc1` were 0.01 µM and 1.48 µM. Regarding `Cc1ccc(/C=C/C(=O)c2ccc(O)cc2)cc1`, in assay [1], the affinity, expressed as Ki, was 0.6 µM. The same measure, in the same setting: with `COc1ccc(C(=O)N2N=C(c3cc(Cl)ccc3O)C[C@@H]2c2ccc(C)cc2)cc1` the figure was 4.67 µM. Take `Cc1ccc([C@H]2CC(c3cc(Br)ccc3O)=NN2C(=O)c2ccco2)cc1`: the inhibition constant (Ki) in assay [1] came to 0.45 µM; in assay [2], 14 µM.

(Values after ChEMBL document CHEMBL3351327, “Synthesis of some novel hydrazone and 2-pyrazoline derivatives: monoamine oxidase inhibitory activities and docking studies” (Bioorg Med Chem Lett, 2014).)
